# Laboratory results from patent US10214584B2, “Therapeutic pharmaceutical composition employing anti-SLC6A6 antibody” (ORDER-MADE MEDICAL RESEARCH INC., priority 2014, dated 2019).
# Columns and labels:
# Format in all cases: cell-based, human
# [1] = system: SW480 cells (SP and MP fractions); assay: FACS staining of SP and MP fractions of SW480 cells; details: SW480, verapamil 30 μg/mL
# Procedure: Moreover, to identify an SP fraction, an additional experiment was conducted in which verapamil serving an inhibitor of drug efflux transporters was added at a concentration of 30 μg/mL.
# SLC6A6 expression was analyzed for the SP fraction and non-SP fraction (i.e., major population (MP) fraction) of SW480 cells, which are human colorectal cancer cells.
# Colo320-SLC6A6-OEx = assay: Ratio of SP cells upon addition of taurine, Colo320-SLC6A6-OEx
# Procedure: (§1) After being transformed in the same manner as shown in Example 8(1) above, the cells were detached on the second day with DISSOCIATION BUFFER (Invitrogen). The cells were stained at 37° C. for 1 hour with a solution prepared to contain 10 μg/mL Hoechst 33342 in PBS(−), followed by analysis using FACS Canto II and a Violet laser (excitation wavelength: 407 nm). Moreover, to identify an SP fraction, an additional experiment was conducted in which verapamil serving an inhibitor of drug efflux transporters was added at a concentration of 30 μg/mL.
# (§2) For this analysis, Colo320 cells (which are human colorectal cancer cells) were engineered to overexpress SLC6A6 and cultured for 2 days in a medium supplemented with taurine at a concentration of 0.05 mM, 0.1 mM, 0.5 mM, 1 mM or 5 mM, and then analyzed for SP cells in the same manner as shown in Example 1(3).
# Colo320-Mock = assay: Ratio of SP cells upon addition of taurine, Colo320-Mock; details: taurine 0.05-5 mM, FIG. 10
# Procedure: as §1, §2
Structure (SMILES),SP cells in the presence of verapamil [1],increase of ratio of SP cells compared to the absence of taurine (Colo320-SLC6A6-OEx; 5 mM taurine),"ratio of SP cells (Colo320-SLC6A6-OEx; 5 mM taurine, cultured 2 days (17.0% in the absence of taurine)) [%]","number of SP cells (Colo320-SLC6A6-OEx; taurine 0.05-5 mM, FIG. 10)",number of SP cells (Colo320-Mock)
COc1ccc(CCN(C)CCCC(C#N)(c2ccc(OC)c(OC)c2)C(C)C)cc1OC (centres unmarked) [verapamil],no SP cells were observed,–,–,–,–
NCCS(=O)(=O)O [taurine],–,about 2.5 fold,26.7,increased in a manner dependent on the added concentration of taurine,increased in a manner dependent on the added concentration of taurine
